Reference: patent US20070049564A1 (Wyeth, priority 2005, published 2007)
Values after ≈ are worked out from the molar mass of the structure shown. Where two headings read alike, the source gives them in different places.

Tests used:
[1] = tested on: E. coli GC 2236; test: MIC, broth microdilution; conditions: Escherichia coli, GC2236, E. coli GC 2236
Procedure: (§1) Antimicrobial susceptibility testing. The in vitro activities of the antibiotics are determined by the broth microdilution method as recommended by the National Committee for Clinical Laboratory Standards (NCCLS) (1). Mueller-Hinton II broth (MHBII)(BBL Cockeysville, Md.) is the medium employed in the testing procedures. Microtiter plates containing serial dilutions of each antimicrobial agent are inoculated with each organism to yield the appropriate density (10^5 CFU/ml) in a 100 μl final volume. The plates are incubated for 18-22 hours at 35° C. in ambient air. […] Standard Pharmacological Test Procedures
(§2) Presented in Tables I-XIII are representative compounds of Formula I which were evaluated against a panel of 40 selected gram-positive and gram-negative bacteria strains by pre-incubation in water, mouse serum or human serum. Representative compounds were first incubated in mouse serum for an hour prior to the in vitro testing against a panel of selected gram-positive and gram-negative bacteria strains. All compounds were also pre-incubated in water for an hour prior to testing as control. Representative compounds of Formula I were incubated in human serum prior to MIC determination.

[2] = tested on: E. coli GC 2232; test: MIC, broth microdilution; conditions: Escherichia coli, GC2232, E. coli GC 2232
[3] = tested on: E. coli GC 2234; test: MIC, broth microdilution; conditions: Escherichia coli, GC2234, E. coli GC 2234
[4] = tested on: E. coli GC 2271; test: MIC, broth microdilution; conditions: Escherichia coli, GC2271, E. coli GC 2271
[5] = tested on: E. coli GC 2272; test: MIC, broth microdilution; conditions: Escherichia coli, GC2272, E. coli GC 2272
[6] = tested on: E. coli GC 4559; test: MIC, broth microdilution; conditions: Escherichia coli, GC4559, E. coli GC 4559
[7] = tested on: E. coli GC 3226; test: MIC, broth microdilution; conditions: Escherichia coli, GC3226, E. coli GC 3226
[8] = tested on: E. coli GC 2203; test: MIC, broth microdilution; conditions: Escherichia coli, GC2203, E. coli GC 2203
Procedure: as §1, §2

[9] = tested on: P. aeruginosa GC 2214; test: MIC, broth microdilution; conditions: Pseudomonas aeruginosa, GC2214, P. aeruginosa GC 2214
[10] = tested on: S. aureus GC 1131; test: MIC, broth microdilution; conditions: Staphylococcus aureus, GC1131, S. aureus GC 1131
[11] = tested on: S. aureus GC 6335; test: MIC, broth microdilution; conditions: Staphylococcus aureus, GC6335, S. aureus GC 6335
[12] = tested on: S. epidermidis GC 4935; test: MIC, broth microdilution; conditions: Staphylococcus epidermidis, GC4935, S. epidermidis GC 4935
[13] = tested on: E. faecalis GC 4555; test: MIC, broth microdilution; conditions: Enterococcus faecalis, GC4555, E. faecalis GC 4555
Procedure: Antimicrobial susceptibility testing. The in vitro activities of the antibiotics are determined by the broth microdilution method as recommended by the National Committee for Clinical Laboratory Standards (NCCLS) (1). Mueller-Hinton II broth (MHBII)(BBL Cockeysville, Md.) is the medium employed in the testing procedures. Microtiter plates containing serial dilutions of each antimicrobial agent are inoculated with each organism to yield the appropriate density (10^5 CFU/ml) in a 100 μl final volume. The plates are incubated for 18-22 hours at 35° C. in ambient air.
Representative compounds were first incubated in mouse serum for an hour prior to the in vitro testing against a panel of selected gram-positive and gram-negative bacteria strains. All compounds were also pre-incubated in water for an hour prior to testing as control. Representative compounds of Formula I were incubated in human serum prior to MIC determination.

[14] = tested on: E. faecalis GC 2265; test: MIC, broth microdilution; conditions: Enterococcus faecalis, GC2265, E. faecalis GC 2265
[15] = tested on: E. faecalis GC 2267; test: MIC, broth microdilution; conditions: Enterococcus faecalis, GC2267, E. faecalis GC 2267
[16] = tested on: S. pneumoniae* GC 4465; test: MIC, broth microdilution; conditions: Streptococcus pneumoniae, S. pneumoniae* GC 4465
[17] = tested on: S. pneumoniae+ GC 4465; test: MIC, broth microdilution; conditions: Streptococcus pneumoniae, S. pneumoniae+ GC 4465
[18] = tested on: S. pyogenes GC 4563; test: MIC, broth microdilution; conditions: Streptococcus pyogenes, GC4563, S. pyogenes GC 4563
[19] = tested on: S. agalactiae GC 4564; test: MIC, broth microdilution; conditions: Streptococcus agalactiae, GC4564, S. agalactiae GC 4564
[20] = tested on: Staph. aureus Smith; test: In vivo activity (oral, iv; ED50) against Staph. aureus Smith in mice
Procedure: Representative examples of compounds of Formula I were tested for the oral efficacy using S. aureus Smith in mice.

With `CCCN(CC(=O)Nc1cc(N(C)C)c2c(c1O)C(=O)C1=C(O)[C@]3(O)C(=O)C(C(N)=O)=C(O)[C@@H](N(C)C)[C@@H]3C[C@@H]1C2)C(=O)OCC(C)C` [Example 16, isobutyl 2-{[(5aR,6aS,7S,10aS)-9-(aminocarbonyl)-4,7-bis(dimethylamino)-1,8,10a,11-tetrahydroxy-10,12-dioxo-5,5a,6,6a,7,10,10a,12-octahydrotetracen-2-yl]amino}-2-oxoethyl(propyl)carbamate] the MIC ([1]; Mouse Serum pre-incubation) was 64 µg/mL (≈ 95.3 µM), the MIC ([1]; Water pre-incubation) was > 64 µg/mL and the MIC ([2]; Mouse Serum pre-incubation) was > 64 µg/mL. The MIC ([2]; Water pre-incubation) was > 64 µg/mL, the MIC ([3]; Mouse Serum pre-incubation) was > 64 µg/mL and the MIC ([3]; Water pre-incubation) was > 64 µg/mL. For the same compound, the MIC ([4]; Mouse Serum pre-incubation) was > 64 µg/mL, the MIC ([4]; Water pre-incubation) was > 64 µg/mL and the MIC ([5]; Mouse Serum pre-incubation) was > 64 µg/mL. For the same compound, the MIC ([5]; Water pre-incubation) was > 64 µg/mL, the MIC ([6]; Mouse Serum pre-incubation) was > 64 µg/mL and the MIC ([6]; Water pre-incubation) was > 64 µg/mL. For the same compound, the MIC ([7]; Mouse Serum pre-incubation) was 64 µg/mL (≈ 95.3 µM), the MIC ([7]; Water pre-incubation) was > 64 µg/mL and the MIC ([8]; Mouse Serum pre-incubation) was 16 µg/mL (≈ 23.8 µM). The MIC ([8]; Water pre-incubation) was 64 µg/mL (≈ 95.3 µM), the MIC ([9]; Mouse Serum pre-incubation) was > 64 µg/mL and the MIC ([9]; Water pre-incubation) was > 64 µg/mL. The MIC ([10]; Mouse Serum pre-incubation) was 2 µg/mL (≈ 2.98 µM), the MIC ([10]; Water pre-incubation) was 4 µg/mL (≈ 5.95 µM) and the MIC ([11]; Mouse Serum pre-incubation) was 4 µg/mL (≈ 5.95 µM). It also gave an MIC ([11]; Water pre-incubation) of 4 µg/mL (≈ 5.95 µM), an MIC ([12]; Mouse Serum pre-incubation) of 8 µg/mL (≈ 11.9 µM) and an MIC ([12]; Water pre-incubation) of 8 µg/mL (≈ 11.9 µM). For the same compound, the MIC ([13]; Mouse Serum pre-incubation) was 4 µg/mL (≈ 5.95 µM), the MIC ([13]; Water pre-incubation) was 8 µg/mL (≈ 11.9 µM) and the MIC ([14]; Mouse Serum pre-incubation) was 4 µg/mL (≈ 5.95 µM). The MIC ([14]; Water pre-incubation) was 8 µg/mL (≈ 11.9 µM), the MIC ([15]; Mouse Serum pre-incubation) was 4 µg/mL (≈ 5.95 µM) and the MIC ([15]; Water pre-incubation) was 8 µg/mL (≈ 11.9 µM). For the same compound, the MIC ([16]; Mouse Serum pre-incubation) was 4 µg/mL (≈ 5.95 µM), the MIC ([16]; Water pre-incubation) was 4 µg/mL (≈ 5.95 µM) and the MIC ([17]; Mouse Serum pre-incubation) was 8 µg/mL (≈ 11.9 µM). It also gave an MIC ([17]; Water pre-incubation) of 8 µg/mL (≈ 11.9 µM), an MIC ([18]; Mouse Serum pre-incubation) of 4 µg/mL (≈ 5.95 µM) and an MIC ([18]; Water pre-incubation) of 8 µg/mL (≈ 11.9 µM). The MIC ([19]; Mouse Serum pre-incubation) was 16 µg/mL (≈ 23.8 µM), the MIC ([19]; Water pre-incubation) was 16 µg/mL (≈ 23.8 µM) and the ED50 ([20]; Staphylococcus aureus, in Mus musculus, po, read-out: ED50 Staph Smith SOD) was > 32 mg/kg. For the same compound, the ED50 ([20]; iv, read-out: ED50 Staph Smith SIV) was > 2 mg/kg.
